Among the test systems are MDA-N; OVCAR-5; MOLT-4; NCI-H460; EKVX; OVCAR-3; IGROV-1; UO-31; HCT-15; COLO 205; NCI/ADR-RES; Malme-3M; PC-3; HCT-116; SK-MEL-28; A549; CCRF-CEM; U-251; SW-620; M14.
Test in all cases: DTP human tumour cell line panel, 48 h

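Following 48 hours of exposure in 96-well plates, responses at five concentrations were used to interpolate endpoints linearly. Here, GI50 denotes the concentration required for 50% inhibition of growth.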 The source made the active and inactive calls. No stated cut-off is given here; in the data, active = GI50 up to about 1.1 µM and inactive = higher. Some results are limits rather than exact numbers.

As a reminder, the GI50 is the concentration that inhibits growth by half.

As for `CN(N=O)C(=O)N[C@H]1C(O)O[C@H](CO)[C@@H](O)[C@@H]1O` (stereo not given in full), the GI50 with MDA-N was > 750 µM (inactive); in the assay on OVCAR-5, 647 µM (inactive); in the assay with MOLT-4, 558 µM (inactive); with NCI-H460, 491 µM (inactive); with EKVX it was 643 µM (inactive); in the assay on OVCAR-3 it was 653 µM (inactive). Further, the GI50 was 618 µM (inactive) in the assay with IGROV-1; 658 µM (inactive) in the assay with UO-31; 622 µM in the assay with HCT-15; 596 µM (inactive) in the assay with COLO 205; 740 µM (inactive) in the assay on NCI/ADR-RES; 600 µM (inactive) with Malme-3M. Besides, the GI50 in the assay on PC-3 is > 750 µM (inactive); in the assay on HCT-116 it was 573 µM (inactive); with SK-MEL-28 it was 611 µM (inactive); with A549, 571 µM (inactive); in the assay on CCRF-CEM it was 485 µM (inactive); in the assay with U-251, 593 µM (inactive). The figures for the GI50 in the assay on SW-620 and in the assay on M14 were 511 µM (inactive) and > 750 µM (inactive), respectively.

Regarding `C=C1CCC(O)C/C1=C/C=C1\CCCC2(C)C1CCC2C(C)CCCC(C)C` (stereo not given), the GI50 is 18 µM (inactive) with MDA-N; 20.3 µM (inactive) in the assay with OVCAR-5; 20.2 µM (inactive) with MOLT-4; 20.4 µM (inactive) with NCI-H460; 19 µM (inactive) with EKVX; 18.5 µM (inactive) in the assay on OVCAR-3. Moreover, the GI50 with IGROV-1 is 17.3 µM (inactive); with UO-31, 14.6 µM (inactive); in the assay with HCT-15, 17.1 µM; in the assay on COLO 205, 19 µM (inactive); in the assay with NCI/ADR-RES, 18.2 µM (inactive); in the assay on Malme-3M, 18 µM (inactive). Besides, the GI50 is 18.8 µM (inactive) with PC-3; 15.2 µM (inactive) in the assay with HCT-116; 16.6 µM (inactive) with SK-MEL-28; 19.6 µM (inactive) in the assay with A549; 24.5 µM (inactive) in the assay with CCRF-CEM; 18.6 µM (inactive) in the assay on U-251. Besides, the GI50 in the assay with SW-620 is 16.7 µM (inactive); in the assay on M14, 18 µM (inactive).

On to `C/N=C(N)/N=C(\N)Nc1cc2ccccc2c2ccccc12`, for which the GI50 in the assay with MDA-N was 13.9 µM (inactive); with OVCAR-5, 17.5 µM (inactive); in the assay with MOLT-4 it was 10.4 µM (inactive); with NCI-H460 it was 11.1 µM (inactive); in the assay on EKVX it was 16.3 µM (inactive); in the assay on OVCAR-3, 16.7 µM (inactive). Also, the GI50 with IGROV-1 was 17.9 µM (inactive); in the assay with UO-31, 11.9 µM (inactive); in the assay with HCT-15, 16.7 µM; in the assay on COLO 205, 13.7 µM (inactive); with NCI/ADR-RES it was 20.6 µM (inactive); in the assay on Malme-3M, 15 µM (inactive). The GI50 in the assay with PC-3 was 15.8 µM (inactive); in the assay on HCT-116 it was 12.9 µM (inactive); with SK-MEL-28, 17.8 µM (inactive); in the assay on A549, 14.2 µM (inactive); with CCRF-CEM, 7.74 µM (inactive); in the assay on U-251, 15.2 µM (inactive). Also, the values for the GI50 in the assay with SW-620 and with M14 were 16.6 µM (inactive) and 17 µM (inactive), respectively.

For the compound `Cc1cc(=O)n2nc(CSc3nnc(Sc4cc(O)ccc4O)s3)sc2n1`, the GI50 in the assay on MDA-N was 18.6 µM (inactive); with OVCAR-5, > 100 µM (inactive); in the assay with MOLT-4 it was 24.4 µM (inactive); in the assay with NCI-H460, > 100 µM (inactive); with EKVX, 99.3 µM (inactive); in the assay with OVCAR-3, 34.4 µM (inactive). Further, the GI50 in the assay on IGROV-1 was > 100 µM (inactive); with UO-31 it was > 100 µM (inactive); in the assay on HCT-15, greater than 100 µM; with COLO 205 it was 68.5 µM (inactive); with NCI/ADR-RES, > 100 µM (inactive); in the assay with Malme-3M, 40.3 µM (inactive). In addition, the GI50 in the assay on PC-3 is > 100 µM (inactive); in the assay on HCT-116 it was 19.7 µM (inactive); in the assay on SK-MEL-28, 54.1 µM (inactive); with A549, > 100 µM (inactive); with CCRF-CEM, 22.6 µM (inactive); with U-251, 35.8 µM (inactive). For the same compound, the GI50 with SW-620 was 22.8 µM (inactive); in the assay on M14, 79.1 µM (inactive).

As to `CC(C)(C)OC(=O)N1C/C=C\C(=O)C2(OCCO2)c2ccccc21`, the GI50 is 20.4 µM (inactive) with MDA-N; > 100 µM (inactive) in the assay with OVCAR-5; 19.5 µM (inactive) with MOLT-4; 22.7 µM (inactive) in the assay on NCI-H460; 31.3 µM (inactive) with EKVX; 15.7 µM (inactive) in the assay with OVCAR-3. For the same compound, the GI50 with IGROV-1 was 16.9 µM (inactive); with UO-31, 17.7 µM (inactive); in the assay with HCT-15, 31.7 µM; with COLO 205, 17.7 µM (inactive); with NCI/ADR-RES it was 47.5 µM (inactive); in the assay on Malme-3M it was 22.7 µM (inactive). Besides, the GI50 with PC-3 was 29.4 µM (inactive); in the assay with HCT-116, 17.4 µM (inactive); in the assay on SK-MEL-28 it was 22.5 µM (inactive); with A549, 35.2 µM (inactive); in the assay with CCRF-CEM, 25.4 µM (inactive); with U-251, 29.9 µM (inactive). Moreover, the figures for the GI50 in the assay with SW-620 and in the assay with M14 were 25.1 µM (inactive) and 20.7 µM (inactive), respectively.

`COc1cnc2cc(C(=O)O)c3c([N+](=O)[O-])cccc3c2c1`: the GI50 with MDA-N, in the assay on OVCAR-5, in the assay with MOLT-4, with NCI-H460, with EKVX and in the assay on OVCAR-3 was > 100 µM (inactive) each time. For the same compound, the GI50 in the assay on IGROV-1 is > 100 µM (inactive); in the assay with UO-31, > 100 µM (inactive); in the assay with HCT-15, greater than 100 µM; in the assay with COLO 205, > 100 µM (inactive); with NCI/ADR-RES, > 100 µM (inactive); in the assay on Malme-3M it was > 100 µM (inactive). Further, the GI50 with PC-3, in the assay with HCT-116, in the assay on SK-MEL-28, in the assay with A549, in the assay on CCRF-CEM and with U-251 was > 100 µM (inactive) in each case. For the same compound, the GI50 in the assay on SW-620 and with M14 was > 100 µM (inactive) throughout.

For `CC1OC(c2ccc3c(c2O)C(=O)C2=C(C3=O)C3(O)C(=O)CC(C)(O)CC3(O)C=C2)CC(O)C1O` (stereo not given), the GI50 with MDA-N is 3.23 µM (inactive); in the assay on OVCAR-5, 17 µM (inactive); in the assay on MOLT-4, 3.81 µM (inactive); in the assay with NCI-H460 it was 24.2 µM (inactive); in the assay on EKVX it was 16 µM (inactive); with OVCAR-3, 5.35 µM (inactive). Also, the GI50 in the assay on IGROV-1 is 13.4 µM (inactive); in the assay on UO-31, 17.1 µM (inactive); in the assay on HCT-15, 14.5 µM; in the assay on COLO 205 it was 1.75 µM (inactive); with NCI/ADR-RES, 19.5 µM (inactive); in the assay with Malme-3M, 2.99 µM (inactive). The GI50 is 23.3 µM (inactive) in the assay on PC-3; 5.26 µM (inactive) with HCT-116; 15.7 µM (inactive) in the assay on SK-MEL-28; 26.3 µM (inactive) in the assay on A549; 2.05 µM (inactive) in the assay on CCRF-CEM; 16.7 µM (inactive) with U-251. The GI50 was 7.98 µM (inactive) in the assay with SW-620 and 16.1 µM (inactive) in the assay with M14.

For the compound `CCN(CC)CC(O)C1CCC(c2ccccc2)CC1` (stereo not given), the GI50 with MDA-N is 16.3 µM (inactive); with OVCAR-5, 23.2 µM (inactive); with MOLT-4 it was 43.8 µM (inactive); in the assay with NCI-H460, 25.6 µM (inactive); in the assay with EKVX, 0.437 µM (active); in the assay with OVCAR-3 it was 44 µM (inactive). In addition, the GI50 in the assay with IGROV-1 was 35.2 µM (inactive); with UO-31, 14.8 µM (inactive); with HCT-15, 13.2 µM; in the assay on COLO 205, 12.8 µM (inactive); in the assay with NCI/ADR-RES it was 43.2 µM (inactive); in the assay with Malme-3M, 16.3 µM (inactive). Moreover, the GI50 in the assay on PC-3 was 43.6 µM (inactive); with HCT-116, 23.2 µM (inactive); with SK-MEL-28, 25.6 µM (inactive); with A549, 32.6 µM (inactive); in the assay with CCRF-CEM it was 27.4 µM (inactive); in the assay with U-251, 19.8 µM (inactive). For the same compound, the GI50 in the assay with SW-620 was 24.8 µM (inactive); in the assay with M14, 25.1 µM (inactive).

Consider `Cc1ccc(/N=N/c2cc(=O)[nH]c(=O)[nH]2)cc1C`, for which the GI50 in the assay with MDA-N is 12.2 µM (inactive); with OVCAR-5 it was 15.4 µM (inactive); in the assay on MOLT-4, 3.94 µM (inactive); in the assay with NCI-H460, 17.2 µM (inactive); in the assay with EKVX, 17.9 µM (inactive); in the assay on OVCAR-3, 1.94 µM (inactive). In addition, the GI50 with IGROV-1 was 13.9 µM (inactive); in the assay with UO-31, 17.9 µM (inactive); in the assay on HCT-15, 2.85 µM; with COLO 205, 7.76 µM (inactive); in the assay with NCI/ADR-RES, 34 µM (inactive); in the assay on Malme-3M, 14.4 µM (inactive). Besides, the GI50 is 2.71 µM (inactive) in the assay on PC-3; 5.58 µM (inactive) with HCT-116; 15.6 µM (inactive) with SK-MEL-28; 18.5 µM (inactive) in the assay with A549; 2.2 µM (inactive) in the assay on CCRF-CEM; 15.2 µM (inactive) in the assay on U-251. Further, the GI50 in the assay with SW-620 is 4.03 µM (inactive); in the assay with M14 it was 14.2 µM (inactive).

For `C=Cc1c(C)c(O)cc2c1-c1ccc(O)c(C)c1CC2`, the GI50 is 13.6 µM (inactive) in the assay on MDA-N; 27.2 µM (inactive) with OVCAR-5; 11.6 µM (inactive) in the assay on MOLT-4; 20.1 µM (inactive) with NCI-H460; 1.97 µM (inactive) with EKVX; 25.8 µM (inactive) with OVCAR-3. The GI50 with IGROV-1 was 16.6 µM (inactive); with UO-31, 14.8 µM (inactive); in the assay with HCT-15, 12.2 µM; in the assay with COLO 205 it was 19.3 µM (inactive); in the assay on NCI/ADR-RES, 21 µM (inactive); in the assay on Malme-3M, 19.6 µM (inactive). Besides, the GI50 in the assay on PC-3 is > 10 µM (inactive); with HCT-116, 14.1 µM (inactive); in the assay with SK-MEL-28, 16.2 µM (inactive); in the assay on A549 it was 19 µM (inactive); in the assay with CCRF-CEM it was 12.5 µM (inactive); in the assay on U-251, 14.3 µM (inactive). For the same compound, the GI50 with SW-620 is 23.4 µM (inactive); in the assay with M14 it was 20.9 µM (inactive).

Values taken from ChEMBL document CHEMBL1201862, “PubChem BioAssay data set” (2004).
